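In this assay, cells in 96-well plates receive the compound at five concentrations for 48 hours. Endpoints are linearly interpolated between the surrounding concentrations. The concentration for 50% growth inhibition is given as GI50.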 Active and inactive are the calls of the source. Cut-off read from the data, not from the text of the source: active = GI50 up to about 1.1 µM and inactive = higher.
Tests used:
Experiment in all cases: inhibition of tumour cell growth, NCI panel, 48 h
ACHN = tested on: ACHN
CAKI-1 = tested on: CAKI-1
HT-29 = tested on: HT-29
KM-20L2 = tested on: KM-20L2
NCI-H226 = tested on: NCI-H226
NCI-H522 = tested on: NCI-H522
OVCAR-3 = tested on: OVCAR-3
OVCAR-4 = tested on: OVCAR-4
OVCAR-8 = tested on: OVCAR-8
RPMI-8226 = tested on: RPMI-8226
SF-268 = tested on: SF-268
SF-295 = tested on: SF-295
SF-539 = tested on: SF-539
SN12C = tested on: SN12C
SNB-19 = tested on: SNB-19
SW-620 = tested on: SW-620

Measured: GI50

Cc1cccc(C)c1NC(=O)CCc1n[nH]c(=S)o1
inactive: ACHN > 100 µM | CAKI-1 > 100 µM | HT-29 > 100 µM | KM-20L2 > 100 µM | NCI-H226 > 100 µM | NCI-H522 > 100 µM | OVCAR-3 > 100 µM | OVCAR-4 > 100 µM | OVCAR-8 > 100 µM | RPMI-8226 22.2 µM | SF-268 > 100 µM | SF-295 > 100 µM | SF-539 > 100 µM | SN12C > 100 µM | SNB-19 > 100 µM | SW-620 18.1 µM

Cc1nc(N)sc1C(=O)/C=C/c1ccc(/C=C/C(=O)c2sc(NC(=O)CCCCCCCCC(=O)Nc3nc(C)c(C(=O)/C=C/c4ccc(/C=C/C(=O)c5sc(N)nc5C)cc4)s3)nc2C)cc1
inactive: ACHN > 100 µM | CAKI-1 60.4 µM | HT-29 > 100 µM | KM-20L2 > 100 µM | NCI-H522 64.6 µM | OVCAR-3 62.8 µM | OVCAR-4 > 100 µM | OVCAR-8 > 100 µM | RPMI-8226 > 10 µM | SF-268 > 100 µM | SF-295 > 100 µM | SF-539 > 100 µM | SN12C > 100 µM | SNB-19 > 100 µM | SW-620 > 100 µM

CCOC(=O)C1=C(NC(C)(C)C)OC/C1=N\NC(=O)Cc1ccccc1
inactive: ACHN > 100 µM | CAKI-1 > 100 µM | HT-29 > 100 µM | KM-20L2 > 100 µM | NCI-H226 > 100 µM | NCI-H522 > 100 µM | OVCAR-3 > 100 µM | OVCAR-4 > 100 µM | OVCAR-8 > 100 µM | SF-268 > 100 µM | SF-295 > 100 µM | SF-539 > 100 µM | SN12C > 100 µM | SNB-19 > 100 µM | SW-620 > 100 µM

CCOC(=O)C1=C(O)C(=O)c2ccsc2C1=O
inactive: ACHN > 100 µM | CAKI-1 > 100 µM | HT-29 > 100 µM | KM-20L2 > 100 µM | NCI-H226 > 100 µM | NCI-H522 69.3 µM | OVCAR-3 > 100 µM | OVCAR-4 > 100 µM | OVCAR-8 > 100 µM | RPMI-8226 > 100 µM | SF-268 > 100 µM | SF-295 > 100 µM | SF-539 > 100 µM | SN12C > 100 µM | SNB-19 > 100 µM | SW-620 > 100 µM

Cc1ccc(C2=Nc3ccccc3SC(c3cccc4c3OCO4)C2)cc1 (centres undefined)
inactive: ACHN 20.4 µM | CAKI-1 16.1 µM | HT-29 16.9 µM | KM-20L2 21.3 µM | NCI-H226 18.1 µM | NCI-H522 13.9 µM | OVCAR-3 14.8 µM | OVCAR-4 15.5 µM | OVCAR-8 21.2 µM | RPMI-8226 17.7 µM | SF-268 21.1 µM | SF-295 18.7 µM | SF-539 20 µM | SN12C 19.5 µM | SNB-19 16.1 µM | SW-620 19.1 µM

CCOC(=O)CC(NCc1ccc(/N=C/c2nc3ccc(C(F)(F)F)cc3nc2-c2ccccc2)cc1)C(=O)OCC (centres undefined)
inactive: ACHN > 58.6 µM | CAKI-1 > 100 µM | HT-29 > 100 µM | KM-20L2 > 54.7 µM | NCI-H226 > 100 µM | NCI-H522 > 100 µM | OVCAR-3 > 100 µM | OVCAR-4 > 100 µM | OVCAR-8 > 100 µM | RPMI-8226 > 100 µM | SF-268 > 100 µM | SF-295 27.2 µM | SF-539 17.9 µM | SN12C > 100 µM | SNB-19 27.9 µM | SW-620 > 100 µM

CCOC(=O)C(NO)C(Sc1ccccc1)c1ccc(OC)cc1 (centres undefined)
inactive: ACHN 71.3 µM | HT-29 > 100 µM | KM-20L2 > 100 µM | NCI-H226 81.8 µM | NCI-H522 34.8 µM | OVCAR-3 91 µM | OVCAR-8 > 100 µM | RPMI-8226 55.3 µM | SF-268 > 100 µM | SF-295 > 100 µM | SF-539 > 100 µM | SN12C > 100 µM | SNB-19 > 100 µM | SW-620 > 100 µM

O=C(O)C1(c2ccccc2)CCCNCC1 (centres undefined)
inactive: ACHN > 100 µM | CAKI-1 > 100 µM | HT-29 > 100 µM | KM-20L2 > 100 µM | NCI-H226 > 100 µM | NCI-H522 > 100 µM | OVCAR-3 > 100 µM | OVCAR-4 > 100 µM | OVCAR-8 > 100 µM | RPMI-8226 > 100 µM | SF-268 > 100 µM | SF-295 > 100 µM | SN12C > 100 µM | SNB-19 > 100 µM | SW-620 > 100 µM

CN(C)C(=S)/N=c1\ssc(=S)n1-c1ccccc1
inactive: ACHN 16.7 µM | CAKI-1 19.2 µM | HT-29 18.9 µM | KM-20L2 16.6 µM | NCI-H226 10.1 µM | NCI-H522 14.5 µM | OVCAR-4 15.9 µM | OVCAR-8 15.2 µM | SF-268 16.9 µM | SF-295 24.2 µM | SF-539 16.8 µM | SN12C 15.3 µM | SNB-19 39.6 µM | SW-620 10.7 µM

CC(=O)OC1CC2C(C)(C)C(=O)C=C[C@]2(C)C2CCC3(C)C(c4ccoc4)C(=O)C4OC43[C@]12C (some centres undefined)
inactive: ACHN 24.2 µM | CAKI-1 28.5 µM | HT-29 16.3 µM | KM-20L2 17.2 µM | NCI-H226 16.2 µM | NCI-H522 12.9 µM | OVCAR-3 18.3 µM | OVCAR-4 15.1 µM | OVCAR-8 20.8 µM | RPMI-8226 2.77 µM | SF-268 21.7 µM | SF-295 16.9 µM | SF-539 20.1 µM | SN12C 15.2 µM | SNB-19 31.3 µM | SW-620 19.5 µM

COc1cc([C@@H]2OCC3C(c4ccc5c(c4)OCO5)OCC32)cc(OC)c1OC (some centres undefined)
inactive: ACHN > 100 µM | CAKI-1 > 100 µM | HT-29 > 100 µM | KM-20L2 > 100 µM | NCI-H226 41.3 µM | NCI-H522 49.9 µM | OVCAR-3 > 100 µM | OVCAR-4 > 100 µM | OVCAR-8 81.7 µM | RPMI-8226 98.9 µM | SF-268 > 100 µM | SF-295 > 100 µM | SF-539 > 100 µM | SN12C > 100 µM | SNB-19 47.8 µM | SW-620 > 100 µM

CC(C)=CCC/C(C)=C/CC/C(C)=C/Cc1c(O)c2ccccc2oc1=O
inactive: ACHN > 100 µM | HT-29 > 100 µM | KM-20L2 > 100 µM | NCI-H226 47.1 µM | NCI-H522 > 100 µM | OVCAR-3 75.5 µM | OVCAR-4 > 100 µM | OVCAR-8 > 100 µM | RPMI-8226 91.6 µM | SF-268 > 100 µM | SF-295 > 100 µM | SF-539 > 100 µM | SN12C > 100 µM | SNB-19 > 100 µM | SW-620 > 100 µM

COc1ccc2[nH]cc(CCNC(C)=O)c2c1 [MELATONIN]
inactive: ACHN > 100 µM | CAKI-1 > 100 µM | HT-29 69 µM | KM-20L2 > 100 µM | NCI-H522 > 100 µM | OVCAR-3 > 100 µM | OVCAR-4 > 100 µM | OVCAR-8 > 100 µM | RPMI-8226 22.1 µM | SF-268 > 100 µM | SF-295 > 100 µM | SF-539 > 100 µM | SN12C > 100 µM | SNB-19 > 100 µM | SW-620 8.17 µM

Reference: ChEMBL document CHEMBL1201862, “PubChem BioAssay data set” (2004)
